Like-named read-outs stand apart in the source and are kept apart here.
Legend:
[1] = test system: human cervical carcinoma cell line KB/HeLa; test: XTT cytotoxicity test, KB/HeLa; format: cell-based
RKO p21 cells = test: RKOp21 model, XTT assay; format: cell-based; settings: Homo sapiens; Table 2; read-out: RKP p21 induced IC50
Text: The model used for examining the cell cycle-specific action was the RKOp21 cell system (M. Schmidt et al. Oncogene19(20):2423-9, 2000). RKO is a human colon carcinoma line in which the cell cycle inhibitor p21^wafl is expressed induced by the ecdysone expression system and leads to an arrest of the cell cycle specifically in G1 and G2. Nonspecific substances inhibit proliferation independently of whether the RKO cell is arrested in G1 or G2 or not. In contrast, cell cycle-specific substances, such as, for example, tubulin inhibitors, are only cytotoxic if the cells are not arrested and the cell cycle is in progress. […] This underlines the arrest of the cell cycle in […] already found in the FACS analyses, and a cell cycle-specific action of the compounds tested.
The assay is carried out in 96-well plates. […] Comparison of the activity on induced and non-induced cells allows conclusions to be drawn about the mechanism of action (cell cycle specificity) of the therapeutics. Non-induced [sic] cells are sown at a cell count which is about four times higher than that of non-induced cells since, compared to non-induced cells, there is no further division during the assay (2×10^4 cells/well induced, about 0.6×10^4 cells/well not induced). The controls are untreated cells (+/− induction). Induction is carried out using 3 μM of muristerone A. On day 1, the cells are plated (+/− muristerone A) and incubated at 37° C. for 24 h. On day 2, the test substance is added (control DMSO) and incubation at 37° C. is continued for another 48 h, after which a standard XTT assay is carried out.

human melanoma MEXF 989 = test: Human tumor xenograft MEXF 989 in naked mice; format: in vivo; settings: MEXF 989, oral, 2 weeks, 5 administrations per week
Text: (§1) For the in vivo experiments on naked mice, subcutaneously transplanted tumor fragments of the human melanoma MEXF 989 and/or the rhabdomyosarcoma SXF 463 were used. […]; Monday to Friday). […]. The cell lines included intestinal (2), stomach (1), lung (3), breast (2), melanoma (2), ovary (1), kidney (1) and uterus (1) tumor cell lines. […]. Emphasis is furthermore to be given to the oral bioavailability of the indole compounds according to the invention. […]

rhabdomyosarcoma SXF 463 = test: Human tumor xenograft SXF 463 in naked mice; format: in vivo; settings: SXF 463, oral, 200 mg/kg, 2 weeks
Text: as §1

[2] = test system: 12 permanent human tumor cell lines; test: Propidium iodide-based cytotoxicity assay; format: cell-based
Text: (§2) . The cell lines included intestinal (2), stomach (1), lung (3), breast (2), melanoma (2), ovary (1), kidney (1) and uterus (1) tumor cell lines. […]. Emphasis is furthermore to be given to the oral bioavailability of the indole compounds according to the invention. […]

[3] = Tolerability and oral administration in naked mice; format: in vivo
Text: as §2

rat glioma cell line C6 = test: XTT cytotoxicity test, C6; settings: 45 h, read-out: IC50 C6
[4] = test system: human glioma cell line U118; test: XTT cytotoxicity test, U118; settings: 45 h, read-out: IC50 U118
[5] = test system: human glioma cell line U373; test: XTT cytotoxicity test, U373; settings: U373 MG, 45 h, read-out: IC50 U373
[6] = test system: human glioblastoma cell line U373; test: Cell cycle analysis by FACS; settings: U373, treated 24 h, FIG. 2
[7] = test system: human glioma cell line A-172; test: XTT cytotoxicity test, A-172; settings: A 172, 45 h, read-out: IC50 A-172

For COc1ccc2[nH]c(C(=O)c3ccccc3)cc2c1 [Example D-64131, 5-methoxy-1H-2-indolylphenyl-1-methanone], the IC50 ([1]; 45 h, read-out: IC50 KB/HeLa) was 24 nM, the IC50 ([1]; read-out: Zytotoxizität KB/HeLa IC50) was 24 nM and the IC50 (RKO p21 cells) was 15 nM. For the same molecule, the growth inhibition (human melanoma MEXF 989; 100 mg/kg/day) was 66%, the growth inhibition (human melanoma MEXF 989; 200 mg/kg/day) was 81% and the “growth inhibition relative to the control” value (rhabdomyosarcoma SXF 463) was 83%. The IC50 ([2]; 12 human tumor cell lines, read-out: average IC50 for all cell lines examined) was 340 nM, the IC50 ([2]; lung and stomach tumor cell lines, read-out: IC50) was roughly 4000 nM and the IC50 ([2]; melanoma, intestinal and kidney tumor cells, read-out: IC50) was 4 nM. For the same molecule, the oral bioavailability ([3]; concluded from oral activity) was “orally bioavailable”, the tolerated maximum dose ([3]; intraperitoneal injection, administered weekly) was 400 mg/kg and the tolerability ([3]; p.o. 100 and 200 mg/kg, Qdx5 for 2 weeks) was “tolerated very well”. For the same molecule, the IC50 (rat glioma cell line C6) was 96.5 nM, the IC50 [4] was 24 nM and the IC50 [5] was 22 nM. For the same molecule, the “cells in the metaphase of mitotic division (M-phase)” value [6] was “concentration-dependent arrest of the cells in mitosis” and the IC50 [7] was 51 nM.
